# Measured values reported in patent EP4483954A1 (Masarykova Univerzita, priority 2023, dated 2025).
# Columns and labels:
# Assay type in all cases: biochemical
# CDKL4(h) = target: T1, CDKL4(h) (Homo sapiens, UniProt Q5MAI5); test: radiometric kinase assay (KinaseProfiler, Eurofins), CDKL4; conditions: in vitro radiometric kinase assay, tested at 1 nM to 10 000 nM, no pre-incubation; read-out: inhibitory activities (IC50 values) CDKL4
# T1 construct: purchased Eurofins (KinaseProfiler)
# Procedure: (§1) The compounds were profiled in the radiometric assays (KinaseProfiler, Eurofins).
# (§2) Briefly, kinases were diluted in the buffer shown below prior to addition to the reaction mix: • CDKL3, TAF1L: 20 mM Tris/HCl pH 8.5, 0.2 mM EDTA, 0.1% β-mercaptoethanol, 0.01% Brij-35, 5% glycerol, 1 mg/ml BSA; • Haspin: 15 mM MOPS, 0.75 mM EDTA, 0.0075% Brij-35, 3.75% Glycerol, 150 mM NaCl, 0.1% β-mercaptoethanol, 1 mg/mLBSA; • CDKL4, CLK2, PIM1, TRB2: […], 1 mM EDTA, 0.01% Brij-35, 5% Glycerol, 0.1% β-mercaptoethanol, 1 mg/mL BSA.
# (§3) All compounds were prepared to 50x final assay concentration in 100% DMSO. This working stock of the compound was added to the assay well as the first component in the reaction, followed by the remaining components as detailed in the general assay protocols below. There was no pre-incubation step between the compound and the kinase prior to initiation of the reaction.
# (§4) CDKL4(h) was incubated with 8 mM MOPS pH 7.0, 0.2 mM EDTA, 250 µM RRRFRPASPLRGPPK (SEQ ID NO. 1), 10 mM magnesium acetate and γ-^33P-ATP (specific activity and concentration as required). The reaction was initiated by the addition of the Mg/ATP mix. After incubation for 120 minutes at room temperature, the reaction was stopped by the addition of phosphoric acid to a concentration of 0.5%. An aliquot of the stopped reaction was spotted onto a filter and washed four times for 4 minutes in 0.425% phosphoric acid and once in methanol prior to drying and scintillation counting.
# (§5) Kinase activity data were expressed as the percent remaining kinase activity in tested samples compared to the vehicle (DMSO) reactions. The compounds were tested at the following concentrations: 1 nM, 3 nM, 10 nM, 30 nM, 100 nM, 300 nM, 1000 nM, 3000 nM, and 10 000 nM; IC50 values and curve fits were then obtained.
# TAF1L(h) = target: T2, TAF1L(h) (Homo sapiens, UniProt Q8IZX4); test: radiometric kinase assay (KinaseProfiler, Eurofins), TAF1L; conditions: in vitro radiometric kinase assay, tested at 1 nM to 10 000 nM, no pre-incubation; read-out: inhibitory activities (IC50 values) TAF1L
# T2 construct: purchased Eurofins (KinaseProfiler)
# Procedure: as §1, §2, §3
# as §4, with “TAF1L(h)” for “CDKL4(h)”, “20” for “8”, “Tris/HCl” for “MOPS”, “8.5,” for “7.0,”
# as §5
# Haspin (h) = target: T3, Haspin (h) (Homo sapiens, UniProt Q8TF76); test: radiometric kinase assay (KinaseProfiler, Eurofins), Haspin; conditions: in vitro radiometric kinase assay, tested at 1 nM to 10 000 nM, no pre-incubation; read-out: inhibitory activities (IC50 values) Haspin
# T3 construct: purchased Eurofins (KinaseProfiler)
# T3 sequence (Q8TF76 1-798): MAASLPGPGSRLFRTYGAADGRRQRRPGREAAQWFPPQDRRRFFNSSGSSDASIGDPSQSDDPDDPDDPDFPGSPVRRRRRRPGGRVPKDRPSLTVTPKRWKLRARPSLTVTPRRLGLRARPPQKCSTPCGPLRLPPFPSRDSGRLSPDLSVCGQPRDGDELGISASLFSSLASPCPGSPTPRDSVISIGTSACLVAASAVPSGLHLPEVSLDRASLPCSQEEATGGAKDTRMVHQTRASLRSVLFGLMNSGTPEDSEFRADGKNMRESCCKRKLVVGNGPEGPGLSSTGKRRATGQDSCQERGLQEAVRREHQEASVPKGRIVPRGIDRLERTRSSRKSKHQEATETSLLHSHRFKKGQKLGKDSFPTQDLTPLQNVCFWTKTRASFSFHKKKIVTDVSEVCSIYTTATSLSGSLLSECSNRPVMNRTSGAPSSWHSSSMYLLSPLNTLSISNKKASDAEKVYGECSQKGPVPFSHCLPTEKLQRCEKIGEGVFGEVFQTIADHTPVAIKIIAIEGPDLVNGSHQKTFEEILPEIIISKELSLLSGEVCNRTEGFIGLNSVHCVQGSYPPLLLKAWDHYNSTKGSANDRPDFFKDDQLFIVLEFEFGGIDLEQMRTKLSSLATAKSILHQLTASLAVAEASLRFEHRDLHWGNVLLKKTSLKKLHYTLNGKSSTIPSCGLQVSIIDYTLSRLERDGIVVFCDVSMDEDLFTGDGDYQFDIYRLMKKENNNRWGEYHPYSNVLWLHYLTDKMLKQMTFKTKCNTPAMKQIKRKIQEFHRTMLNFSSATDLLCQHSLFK
# Method in brief: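 Human Haspin in 8 mM MOPS pH 7.0 with 500 µM RARTLSFAEPG, 10 mM Mg acetate and γ-33P-ATP; compound added without preincubation. Reaction ran 40 min at room temperature, then filter-bound 33P was counted. Nine concentrations from 1 to 10 000 nM gave % remaining activity versus DMSO, and IC50 came from curve fit.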
# T1 sequence (Q5MAI5 whole entry): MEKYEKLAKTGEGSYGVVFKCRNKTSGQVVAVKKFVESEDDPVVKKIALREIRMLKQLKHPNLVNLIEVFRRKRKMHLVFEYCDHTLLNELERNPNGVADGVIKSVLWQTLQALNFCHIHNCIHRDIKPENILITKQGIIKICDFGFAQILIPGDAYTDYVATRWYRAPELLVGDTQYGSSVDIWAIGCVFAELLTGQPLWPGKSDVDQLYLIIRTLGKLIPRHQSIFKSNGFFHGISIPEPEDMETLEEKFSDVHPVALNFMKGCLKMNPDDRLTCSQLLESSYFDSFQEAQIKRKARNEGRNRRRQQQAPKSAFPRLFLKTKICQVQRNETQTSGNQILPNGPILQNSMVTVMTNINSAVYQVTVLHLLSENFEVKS
# T2 sequence (Q8IZX4 whole entry): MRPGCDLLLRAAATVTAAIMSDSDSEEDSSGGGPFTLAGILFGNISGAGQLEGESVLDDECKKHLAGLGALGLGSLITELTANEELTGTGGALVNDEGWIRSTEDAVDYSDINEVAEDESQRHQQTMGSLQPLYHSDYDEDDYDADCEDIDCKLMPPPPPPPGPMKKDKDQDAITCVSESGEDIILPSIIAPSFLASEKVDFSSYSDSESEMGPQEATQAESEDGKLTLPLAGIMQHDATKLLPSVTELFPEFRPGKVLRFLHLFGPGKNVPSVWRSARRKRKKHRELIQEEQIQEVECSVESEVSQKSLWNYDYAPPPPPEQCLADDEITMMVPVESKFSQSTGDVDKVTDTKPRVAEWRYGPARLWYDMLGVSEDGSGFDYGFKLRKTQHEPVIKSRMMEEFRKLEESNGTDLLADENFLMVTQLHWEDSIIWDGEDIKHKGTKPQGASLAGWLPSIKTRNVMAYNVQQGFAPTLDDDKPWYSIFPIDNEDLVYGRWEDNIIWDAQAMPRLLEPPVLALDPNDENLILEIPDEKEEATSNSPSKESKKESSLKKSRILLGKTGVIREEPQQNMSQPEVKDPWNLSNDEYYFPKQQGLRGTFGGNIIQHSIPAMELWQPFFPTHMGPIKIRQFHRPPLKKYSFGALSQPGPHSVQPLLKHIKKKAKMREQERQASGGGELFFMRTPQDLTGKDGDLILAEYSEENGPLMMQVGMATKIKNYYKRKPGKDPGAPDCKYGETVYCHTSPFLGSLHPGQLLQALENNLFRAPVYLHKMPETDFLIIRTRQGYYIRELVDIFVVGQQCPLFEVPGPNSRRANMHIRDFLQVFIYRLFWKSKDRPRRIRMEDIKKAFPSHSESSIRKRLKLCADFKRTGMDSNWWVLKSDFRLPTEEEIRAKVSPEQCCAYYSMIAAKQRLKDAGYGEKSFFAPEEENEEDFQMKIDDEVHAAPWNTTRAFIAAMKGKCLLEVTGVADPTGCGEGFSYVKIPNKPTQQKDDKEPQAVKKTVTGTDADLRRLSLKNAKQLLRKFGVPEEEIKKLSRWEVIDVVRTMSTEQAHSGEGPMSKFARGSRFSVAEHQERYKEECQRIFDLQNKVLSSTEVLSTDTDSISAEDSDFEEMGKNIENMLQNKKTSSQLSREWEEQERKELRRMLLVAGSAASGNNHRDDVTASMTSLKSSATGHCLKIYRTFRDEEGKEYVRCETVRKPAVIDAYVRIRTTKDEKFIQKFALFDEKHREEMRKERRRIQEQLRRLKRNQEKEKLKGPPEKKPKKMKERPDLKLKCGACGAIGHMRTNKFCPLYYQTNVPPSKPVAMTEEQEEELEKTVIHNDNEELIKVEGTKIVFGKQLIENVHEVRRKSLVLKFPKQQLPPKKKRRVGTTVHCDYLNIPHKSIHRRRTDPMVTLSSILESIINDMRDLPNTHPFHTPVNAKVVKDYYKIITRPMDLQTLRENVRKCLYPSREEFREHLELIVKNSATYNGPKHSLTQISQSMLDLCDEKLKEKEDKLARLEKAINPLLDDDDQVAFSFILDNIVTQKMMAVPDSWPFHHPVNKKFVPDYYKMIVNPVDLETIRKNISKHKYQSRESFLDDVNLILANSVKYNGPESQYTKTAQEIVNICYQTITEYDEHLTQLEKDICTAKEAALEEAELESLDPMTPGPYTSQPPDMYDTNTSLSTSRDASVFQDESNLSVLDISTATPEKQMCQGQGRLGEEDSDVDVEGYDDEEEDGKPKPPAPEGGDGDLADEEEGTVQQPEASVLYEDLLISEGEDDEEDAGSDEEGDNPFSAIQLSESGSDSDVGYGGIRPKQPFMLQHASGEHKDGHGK
SMILES,IC50 (CDKL4(h)),IC50 (TAF1L(h)),IC50 (Haspin (h))
"Cn1cc(-c2csc3ccc(Oc4ccccc4)nc23)cn1 [Preparative Example 139, 3-(1-methyl-1H-pyrazol-4-yl)-5-phenoxythieno[3,2-b]pyridine]",500 to 3000 nM,500 to 3000 nM,100 to 499 nM
"Cn1cncc1-c1ccc2scc(-c3ccncc3)c2n1 [Preparative Example 91, 5-(1-methyl-1H-imidazol-5-yl)-3-(pyridin-4-yl)thieno[3,2-b]pyridine]",500 to 3000 nM,100 to 499 nM,20 to 99 nM
"Cn1cc(-c2ccc3scc(-c4ccc5ncnn5c4)c3n2)cn1 [Preparative Example 53, 3-([1,2,4]-triazolo[1,5-a]pyridin-6-yl)-5-(1-methyl-1H-pyrazol-4-yl)thieno[3,2-b]pyridine]",100 to 499 nM,100 to 499 nM,20 to 99 nM
"Cn1cc(-c2ccc3scc(-c4cccnc4)c3n2)cn1 [Preparative Example 11, 5-(1-methyl-1H-pyrazol-4-yl)-3-(pyridin-3-yl)thieno[3,2-b]pyridine]",500 to 3000 nM,500 to 3000 nM,500 to 3000 nM
"Cc1nn(C)c(C)c1-c1ccc2scc(-c3ccncc3)c2n1 [Preparative Example 85, 3-(pyridin-4-yl)-5-(1,3,5-trimethyl-1H-pyrazol-4-yl)thieno[3,2-b]pyridine]",500 to 3000 nM,500 to 3000 nM,500 to 3000 nM
"c1ccc(Cn2cc(-c3ccc4scc(-c5ccncc5)c4n3)cn2)cc1 [Preparative Example 81, 5-(1-benzyl-1H-pyrazol-4-yl)-3-(pyridin-4-yl)thieno[3,2-b]pyridine]",500 to 3000 nM,500 to 3000 nM,100 to 499 nM
"Cn1nccc1-c1ccc2scc(-c3ccncc3)c2n1 [Preparative Example 90, 5-(1-methyl-1H-pyrazol-5-yl)-3-(pyridin-4-yl)thieno[3,2-b]pyridine]",500 to 3000 nM,500 to 3000 nM,500 to 3000 nM
"Cn1cc(-c2ccc3scc(-c4ccncc4)c3n2)c(NC(=O)OC(C)(C)C)n1 [Preparative Example 83, tert-butyl(1-methyl-4-(3-(pyridin-4-yl)thieno[3,2-b]pyridin-5-yl)-1H-pyrazol-3-yl)carbamate]",500 to 3000 nM,500 to 3000 nM,3000 to 10000 nM
"Cc1nsc(-c2csc3ccc(-c4cnn(C)c4)nc23)n1 [Preparative Example 71, 3-(3-methyl-1,2,4-thiadiazol-5-yl)-5-(1-methyl-1H-pyrazol-4-yl)thieno[3,2-b]pyridine]",100 to 499 nM,100 to 499 nM,20 to 99 nM
"c1cc(-c2csc3ccc(Nc4cc[nH]n4)nc23)ccn1 [Preparative Example 101, N-(1H-pyrazol-3-yl)-3-(pyridin-4-yl)thieno[3,2-b]pyridin-5-amine]",100 to 499 nM,20 to 99 nM,20 to 99 nM
"Cn1cc(-c2ccc3scc(-c4ccnnc4)c3n2)cn1 [Preparative Example 40, 5-(1-methyl-1H-pyrazol-4-yl)-3-(pyridazin-4-yl)thieno[3,2-b]-pyridine]",500 to 3000 nM,100 to 499 nM,100 to 499 nM
"Cn1cc(-c2ccc3scc(C(=O)c4ccccc4)c3n2)cn1 [Preparative Example 73, (5-(1-methyl-1H-pyrazol-4-yl)thieno[3,2-b]pyridin-3-yl)(phenyl)-methanone]",3000 to 10000 nM,3000 to 10000 nM,3000 to 10000 nM
"c1ccc(-c2csc3ccc(-c4cnoc4)nc23)cc1 [Preparative Example 124, 4-(3-phenylthieno[3,2-b]pyridin-5-yl)isoxazole]",3000 to 10000 nM,3000 to 10000 nM,3000 to 10000 nM
Cn1cc(-c2ccc3scc(-c4ccnc(C#N)c4)c3n2)cn1,100 to 499 nM,100 to 499 nM,100 to 499 nM
"Cn1cc(-c2ccc3scc(Nc4ccccc4)c3n2)cn1 [Preparative Example 76, 5-(1-methyl-1H-pyrazol-4-yl)-N-phenylthieno[3,2-b]pyridin-3-amine]",20 to 99 nM,20 to 99 nM,100 to 499 nM
"FC(F)(F)n1cc(-c2ccc3scc(-c4ccncc4)c3n2)cn1 [Preparative Example 78, 3-(pyridin-4-yl)-5-(1-(trifluoromethyl)-1H-pyrazol-4-yl)thieno[3,2-b]pyridine]",500 to 3000 nM,3000 to 10000 nM,3000 to 10000 nM

# Continued, values first:
IC50 (CDKL4(h)),IC50 (TAF1L(h)),IC50 (Haspin (h)),SMILES
100 to 499 nM,100 to 499 nM,100 to 499 nM,"Cc1cc(-c2csc3ccc(-c4cnn(C)c4)nc23)ccn1 [Preparative Example 15, 5-(1-methyl-1H-pyrazol-4-yl)-3-(2-methylpyridin-4-yl)-thieno[3,2-b]pyridine]"
500 to 3000 nM,500 to 3000 nM,3000 to 10000 nM,"Cc1cnccc1-c1csc2ccc(-c3cnn(C)c3)nc12 [Preparative Example 32, 5-(1-methyl-1H-pyrazol-4-yl)-3-(3-methylpyridin-4-yl)thieno[3,2-b]pyridine]"
3000 to 10000 nM,3000 to 10000 nM,20 to 99 nM,"Cc1cc2scc(-c3ccncc3)c2nc1-c1ccn(C)n1 [Preparative Example 151, 6-methyl-5-(1-methyl-1H-pyrazol-3-yl)-3-(pyridin-4-yl)thieno[3,2-b]pyridine]"
100 to 499 nM,100 to 499 nM,100 to 499 nM,"COc1cc(-c2csc3ccc(-c4cnn(C)c4)nc23)ccn1 [Preparative Example 17, 3-(2-methoxypyridin-4-yl)-5-(1-methyl-1H-pyrazol-4-yl)thieno[3.2-b]pyridine]"
500 to 3000 nM,3000 to 10000 nM,500 to 3000 nM,"Cc1cc(-c2cnn(C)c2)nc2c(-c3ccncc3)csc12 [Preparative Example 157, 7-methyl-5-(1-methyl-1H-pyrazol-4-yl)-3-(pyridin-4-yl)thieno[3,2-b]pyridine]"
500 to 3000 nM,500 to 3000 nM,500 to 3000 nM,"Cc1cc2scc(-c3ccncc3)c2nc1-c1cnn(C)c1 [Preparative Example 150, 6-methyl-5-(1-methyl-1H-pyrazol-4-yl)-3-(pyridin-4-yl)thieno[3,2-b]pyridine]"
100 to 499 nM,100 to 499 nM,500 to 3000 nM,"Cn1cc(-c2cc(Cl)c3scc(-c4ccncc4)c3n2)cn1 [Preparative Example 162, 7-chloro-5-(1-methyl-1H-pyrazol-4-yl)-3-(pyridin-4-yl)thieno[3,2-b]pyridine]"
500 to 3000 nM,500 to 3000 nM,500 to 3000 nM,"Cc1sc2ccc(-c3cnn(C)c3)nc2c1-c1ccncc1 [Preparative Example 142, 2-methyl-5-(1-methyl-1H-pyrazol-4-yl)-3-(pyridin-4-yl)thieno[3,2-b]pyridine]"
